Laboratory results published in the SangsterLogP compilation.

test: method code SF-AS/HPLC, from DOI: 10.1039/a908863f

Question: With `C=CC(=O)OCCOCCOC(=O)C=C` as the compound, how does the logP read?
Answer: 0.79

Question: With `C=CC(=O)OCC(CC)(COC(=O)C=C)COC(=O)C=C` as the compound, how does the logP read?
Answer: 2.75

Question: Which logP does the source give for `C=CC(=O)OCCOCCOCCOC(=O)C=C` here?
Answer: 0.65

Question: Which logP does the source give for `C=CC(=O)OCCCCCCCCCC` here?
Answer: 5.46

Question: With `C=CC(=O)OCC(COC(=O)C=C)(COC(=O)C=C)COC(=O)C=C` as the compound, how does the logP read?
Answer: 2.23

Question: Which logP does the source give for `C=CC(=O)OCCOCCO` here?
Answer: -0.3

Question: Which logP does the source give for `C=CC(=O)OCC(C)(C)COC(=O)C=C` here?
Answer: 2.5

Question: For `C=CC(=O)OCCCOC(=O)C=C`, which logP is on record?
Answer: 0.87

Question: Which logP does the source give for `C=CC(=O)OCCCCCCCCCCCCCCCCCC` here?
Answer: 7.1

Question: For `C=CC(=O)OC(C)COc1ccc(C(C)(C)c2ccc(OCC(C)OC(=O)C=C)cc2)cc1` (stereo not drawn), which logP is on record?
Answer: 6.1

Question: For `C=CC(=O)Oc1ccccc1`, which logP is on record?
Answer: 1.94

Question: Which logP does the source give for `C=CC(=O)OCCOCCOCCOCCOC(=O)C=C` here?
Answer: 0.47

Question: For `C=CC(=O)OCCCCCCOC(=O)C=C`, which logP is on record?
Answer: 3.08
